This passage reports IC50 results from patent US11987588B2, “Modulators of the beta-3 adrenergic receptor useful for the treatment or prevention of heart failure and disorders related thereto” (Arena Pharmaceuticals, Inc., priority 2017, dated 2024).

For this assay, the target named is Beta-3 Adrenergic Receptor (Homo sapiens (Human), UniProt P13945). The experiment in a line: Homogeneous Time-Resolved Fluorescence (HTRF) cAMP antagonist assay, IC50 determination. Conditions: CHO-K1 cells stably expressing recombinant receptor, isoproterenol at EC90. It counts as cell-based. An outline of the steps: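 Antagonist mode: isoproterenol at its predetermined EC90 added after compound to recombinant CHO-K1 cells in IBMX-containing PBS, 1 h, room temperature. Compounds tested as 5-fold, 10-point dilutions, top final typically 10 or 100 μM. HTRF signal converted to cAMP via standard curve, giving IC50.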
Sequence of Beta-3 Adrenergic Receptor (P13945 whole entry, species assumed): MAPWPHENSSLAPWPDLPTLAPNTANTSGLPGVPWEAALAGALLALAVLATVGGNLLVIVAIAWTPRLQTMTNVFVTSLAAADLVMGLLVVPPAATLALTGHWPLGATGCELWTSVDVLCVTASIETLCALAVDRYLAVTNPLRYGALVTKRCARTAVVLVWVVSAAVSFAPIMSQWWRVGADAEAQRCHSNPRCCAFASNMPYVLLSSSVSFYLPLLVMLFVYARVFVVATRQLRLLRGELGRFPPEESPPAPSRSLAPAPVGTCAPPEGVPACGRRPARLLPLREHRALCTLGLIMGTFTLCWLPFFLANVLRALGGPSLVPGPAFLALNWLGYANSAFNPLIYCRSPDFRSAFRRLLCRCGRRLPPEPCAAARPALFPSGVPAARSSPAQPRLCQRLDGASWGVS
In general terms: TR-FRET usually uses a lanthanide donor and a delayed reading to cut background.
In general, IC50 refers to the point on the concentration scale where inhibition reaches its midpoint. For the molecule `NS(=O)(=O)c1cccc(OC[C@@H](O)CN[C@H]2COC3(CCN(S(=O)(=O)c4c[nH]c5ccc(F)cc5c4=O)CC3)C2)c1` [Compound 552, 3-((S)-3-((R)-8-(6-fluoro-4-oxo-1,4-dihydroquinolin-3-ylsulfonyl)-1-oxa-8-azaspiro[4.5]decan-3-ylamino)-2-hydroxypropoxy)benzenesulfonamide], the IC50 was found to be 17.8 nM.

Turning to `Cc1cccc2c(=O)c(S(=O)(=O)N3CCC4(CC3)C[C@@H](NC[C@H](O)COc3cccc(S(N)(=O)=O)c3)CO4)c[nH]c12` [Compound 553, 3-((S)-2-hydroxy-3-((R)-8-(8-methyl-4-oxo-1,4-dihydroquinolin-3-ylsulfonyl)-1-oxa-8-azaspiro[4.5]decan-3-ylamino)propoxy)benzenesulfonamide], the IC50 stood at 23.6 nM.

As to `NS(=O)(=O)c1cccc(OC[C@@H](O)CN[C@H]2COC3(CCN(S(=O)(=O)c4c[nH]c5c(F)cccc5c4=O)CC3)C2)c1` [Compound 554, 3-((S)-3-((R)-8-(8-fluoro-4-oxo-1,4-dihydroquinolin-3-ylsulfonyl)-1-oxa-8-azaspiro[4.5]decan-3-ylamino)-2-hydroxypropoxy)benzenesulfonamide], the IC50 came to 34.6 nM. The figure for `NS(=O)(=O)c1cccc(OC[C@@H](O)CN[C@H]2COC3(CCN(S(=O)(=O)c4c[nH]c5cc(F)ccc5c4=O)CC3)C2)c1` [Compound 555, 3-((S)-3-((R)-8-(7-fluoro-4-oxo-1,4-dihydroquinolin-3-ylsulfonyl)-1-oxa-8-azaspiro[4.5]decan-3-ylamino)-2-hydroxypropoxy)benzenesulfonamide] is 21.3 nM; for `NS(=O)(=O)c1cccc(OC[C@@H](O)CN[C@H]2COC3(CCN(S(=O)(=O)c4ccc5c(c4)CCCC5)CC3)C2)c1` [Compound 556, 3-((S)-2-hydroxy-3-((R)-8-(5,6,7,8-tetrahydronaphthalen-2-ylsulfonyl)-1-oxa-8-azaspiro[4.5]decan-3-ylamino)propoxy)benzenesulfonamide] it is 48.5 nM; for `CCn1cc(S(=O)(=O)N2CCC3(CC2)C[C@@H](NC[C@H](O)COc2cccc(S(N)(=O)=O)c2)CO3)c(=O)c2ccc(C)cc21` [Compound 557, 3-((S)-3-((R)-8-(1-ethyl-7-methyl-4-oxo-1,4-dihydroquinolin-3-ylsulfonyl)-1-oxa-8-azaspiro[4.5]decan-3-ylamino)-2-hydroxypropoxy)benzenesulfonamide] it is 83.9 nM. On to `Cc1c[nH]c2ncc(S(=O)(=O)N3CCC4(CC3)C[C@@H](NC[C@H](O)COc3cccc(S(N)(=O)=O)c3)CO4)cc12` [Compound 558, 3-((S)-2-hydroxy-3-((R)-8-(3-methyl-1H-pyrrolo[2,3-b]pyridin-5-ylsulfonyl)-1-oxa-8-azaspiro[4.5]decan-3-ylamino)propoxy)benzenesulfonamide], for which the IC50 stood at 13.6 nM. In the case of `Cc1nc2cc(S(=O)(=O)N3CCC4(CC3)C[C@@H](NC[C@H](O)COc3cccc(S(N)(=O)=O)c3)CO4)cnc2[nH]1` [Compound 559, 3-((S)-2-hydroxy-3-((R)-8-(2-methyl-3H-imidazo[4,5-b]pyridin-6-ylsulfonyl)-1-oxa-8-azaspiro[4.5]decan-3-ylamino)propoxy)benzenesulfonamide] it was 34.7 nM; in that of `NS(=O)(=O)c1cccc(OC[C@@H](O)CN[C@H]2COC3(CCN(S(=O)(=O)c4ccc5ccccc5c4)CC3)C2)c1` [Compound 560, 3-((S)-2-hydroxy-3-((R)-8-(naphthalen-2-ylsulfonyl)-1-oxa-8-azaspiro[4.5]decan-3-ylamino)propoxy)benzenesulfonamide], 19.2 nM.

For `CNS(=O)(=O)c1cccc(OC[C@@H](O)CN[C@H]2COC3(CCN(c4ccccn4)CC3)C2)c1` [Compound 561, 3-((S)-2-hydroxy-3-((R)-8-(pyridin-2-yl)-1-oxa-8-azaspiro[4.5]decan-3-ylamino)propoxy)-N-methylbenzenesulfonamide], the IC50 came to 429 nM.

On to `NS(=O)(=O)c1cccc(OC[C@@H](O)CN[C@H]2COC3(CCN(S(=O)(=O)c4cnc5ccccc5c4)CC3)C2)c1` [Compound 562, 3-((S)-2-hydroxy-3-((R)-8-(quinolin-3-ylsulfonyl)-1-oxa-8-azaspiro[4.5]decan-3-ylamino)propoxy)benzenesulfonamide], for which the IC50 came to 16.3 nM. In the case of `NS(=O)(=O)c1cccc(OC[C@@H](O)CN[C@@H]2COC3(CCN(S(=O)(=O)c4cnc5cc[nH]c5c4)CC3)C2)c1` [Compound 563, 3-((S)-3-((S)-8-(1H-pyrrolo[3,2-b]pyridin-6-ylsulfonyl)-1-oxa-8-azaspiro[4.5]decan-3-ylamino)-2-hydroxypropoxy)benzenesulfonamide] it was 26.4 nM. In the case of `Cc1n[nH]c2ncc(S(=O)(=O)N3CCC4(CC3)C[C@@H](NC[C@H](O)COc3cccc(S(N)(=O)=O)c3)CO4)cc12` [Compound 564, 3-((S)-2-hydroxy-3-((R)-8-(3-methyl-1H-pyrazolo[3,4-b]pyridin-5-ylsulfonyl)-1-oxa-8-azaspiro[4.5]decan-3-ylamino)propoxy)benzenesulfonamide] it was 27 nM; in that of `NS(=O)(=O)c1cccc(OC[C@@H](O)CN[C@H]2COC3(CCN(S(=O)(=O)c4ccc5c(c4)CCCO5)CC3)C2)c1` [Compound 565, 3-((S)-3-((R)-8-(chroman-6-ylsulfonyl)-1-oxa-8-azaspiro[4.5]decan-3-ylamino)-2-hydroxypropoxy)benzenesulfonamide], 51.2 nM; in that of `NS(=O)(=O)c1cccc(OC[C@@H](O)CN[C@H]2COC3(CCN(S(=O)(=O)c4ccc5ncccc5c4)CC3)C2)c1` [Compound 566, 3-((S)-2-hydroxy-3-((R)-8-(quinolin-6-ylsulfonyl)-1-oxa-8-azaspiro[4.5]decan-3-ylamino)propoxy)benzenesulfonamide], 78.6 nM. Turning to `CCOc1ccc(-c2ccc(CN)cc2)cc1S(=O)(=O)N1CCC2(CC1)C[C@@H](NC[C@H](O)COc1cccc(S(N)(=O)=O)c1)CO2` [Compound 567, 3-((S)-3-((R)-8-(4′-(aminomethyl)-4-ethoxybiphenyl-3-ylsulfonyl)-1-oxa-8-azaspiro[4.5]decan-3-ylamino)-2-hydroxypropoxy)benzenesulfonamide], the IC50 stood at 17.9 nM. Consider `CNS(=O)(=O)c1cccc(OC[C@@H](O)CN[C@H]2COC3(CCN(c4nccc(OC)n4)CC3)C2)c1` [Compound 568, 3-((S)-2-hydroxy-3-((R)-8-(4-methoxypyrimidin-2-yl)-1-oxa-8-azaspiro[4.5]decan-3-ylamino)propoxy)-N-methylbenzenesulfonamide], for which the IC50 was found to be 411 nM.

With `CNS(=O)(=O)c1cccc(OC[C@@H](O)CN[C@H]2COC3(CCN(c4nccc(N)n4)CC3)C2)c1` [Compound 569, 3-((S)-3-((R)-8-(4-aminopyrimidin-2-yl)-1-oxa-8-azaspiro[4.5]decan-3-ylamino)-2-hydroxypropoxy)-N-methylbenzenesulfonamide], the IC50 turned out to be 427 nM. The figure for `CNS(=O)(=O)c1cccc(OC[C@@H](O)CN[C@H]2COC3(CCN(c4ncc(Cc5ccccc5)cn4)CC3)C2)c1` [Compound 570, 3-((S)-3-((R)-8-(5-benzylpyrimidin-2-yl)-1-oxa-8-azaspiro[4.5]decan-3-ylamino)-2-hydroxypropoxy)-N-methylbenzenesulfonamide] is 143 nM; for `CCc1cnc(N2CCC3(CC2)C[C@@H](NC[C@H](O)COc2cccc(S(=O)(=O)NC)c2)CO3)nc1` [Compound 571, 3-((S)-3-((R)-8-(5-ethylpyrimidin-2-yl)-1-oxa-8-azaspiro[4.5]decan-3-ylamino)-2-hydroxypropoxy)-N-methylbenzenesulfonamide] it is 237 nM. In the case of `CNS(=O)(=O)c1cccc(OC[C@@H](O)CN[C@H]2COC3(CCN(c4nccc(-c5ccccc5)n4)CC3)C2)c1` [Compound 572, 3-((S)-2-hydroxy-3-((R)-8-(4-phenylpyrimidin-2-yl)-1-oxa-8-azaspiro[4.5]decan-3-ylamino)propoxy)-N-methylbenzenesulfonamide] it was 65.6 nM; in that of `CNS(=O)(=O)c1cccc(OC[C@@H](O)CN[C@H]2COC3(CCN(c4nccc(Cc5ccccc5)n4)CC3)C2)c1` [Compound 573, 3-((S)-3-((R)-8-(4-benzylpyrimidin-2-yl)-1-oxa-8-azaspiro[4.5]decan-3-ylamino)-2-hydroxypropoxy)-N-methylbenzenesulfonamide], 115 nM; in that of `CNS(=O)(=O)c1cccc(OC[C@@H](O)CN[C@H]2COC3(CCN(c4nccc(C(F)(F)F)n4)CC3)C2)c1` [Compound 574, 3-((S)-2-hydroxy-3-((R)-8-(4-(trifluoromethyl)pyrimidin-2-yl)-1-oxa-8-azaspiro[4.5]decan-3-ylamino)propoxy)-N-methylbenzenesulfonamide], 609 nM. For `CNS(=O)(=O)c1cccc(OC[C@@H](O)CN[C@H]2COC3(CCN(c4nccc(C)n4)CC3)C2)c1` [Compound 575, 3-((S)-2-hydroxy-3-((R)-8-(4-methylpyrimidin-2-yl)-1-oxa-8-azaspiro[4.5]decan-3-ylamino)propoxy)-N-methylbenzenesulfonamide], the IC50 is 216 nM. Take `CNS(=O)(=O)c1cccc(OC[C@@H](O)CN[C@H]2COC3(CCN(c4ncccn4)CC3)C2)c1` [Compound 576, 3-((S)-2-hydroxy-3-((R)-8-(pyrimidin-2-yl)-1-oxa-8-azaspiro[4.5]decan-3-ylamino)propoxy)-N-methylbenzenesulfonamide]: the IC50 was 528 nM. In the case of `CNS(=O)(=O)c1cccc(OC[C@@H](O)CN[C@H]2COC3(CCN(c4nc(C)cc(C)n4)CC3)C2)c1` [Compound 577, 3-((S)-3-((R)-8-(4,6-dimethylpyrimidin-2-yl)-1-oxa-8-azaspiro[4.5]decan-3-ylamino)-2-hydroxypropoxy)-N-methylbenzenesulfonamide] it was 102 nM; in that of `CCCCCCCc1cnc(N2CCC3(CC2)C[C@@H](NC[C@H](O)COc2cccc(S(=O)(=O)NC)c2)CO3)nc1` [Compound 578, 3-((S)-3-((R)-8-(5-heptylpyrimidin-2-yl)-1-oxa-8-azaspiro[4.5]decan-3-ylamino)-2-hydroxypropoxy)-N-methylbenzenesulfonamide], 424 nM.
